This passage reports Cross-Reactivity and IC50 results from PMC8307831, “Preparation of Monoclonal Antibody and Development of Indirect Competitive Enzyme-Linked Immunosorbent Assay and Fluorescence-Linked Immunosorbent Assay for Detecting 3-Amino-5-methylmorpholino-2-oxazolidinone (AMOZ) in Edible Animal Tissue” (Molecules, 2021).

Converted amounts (≈) assume the structure as drawn.

Test [1] relates to mAb 5C10/3A8. As to the kind of experiment: indirect competitive ELISA (ic-ELISA) with CPAMOZ-OVA coating antigen. The class given is binding, mouse. The settings on record: for Cross-Reactivity: (IC50 of 2-NP-AMOZ / IC50 of compound tested) x 100%, 2-NP-AMOZ set to 100%; for IC50: mAb 5C10/3A8, competition with coating antigen CPAMOZ-OVA. How it is done: To carry out 2-NP-AMOZ ic-ELISA, 96-well plates were first coated with 100 μL of CPAMOZ-OVA in 50 mM of carbonate buffer solution (pH = 9.6) overnight at 4 °C. […] The plates were washed again three times, after which 50 μL of different concentrations of 2-NP-AMOZ analytes and 50 μL of the obtained mAb were added into each well, incubated at 37 °C for 1 h, and the plates were washed three times with the PBST. Subsequently, 100 μL of horseradish peroxidase-labeled goat anti-mouse IgG (1:10,000 dilution) was added to the wells and incubated at 37 °C for 1 h. This was followed by a washing step of three washes with PBST solution, after which 100 μL of substrate solution was added to each well and incubated for 15 min in darkness. The reaction was stopped by adding 50 μL/well of 2 M of H2SO4. The absorbance at 450 nm was measured on a Tecan Sunrise 2.5 microplate reader (SUNRISE, Austria). A calibration curve was constructed by plotting (B/B0) × 100% vs. log C, where B and B0 represent the absorbance of the analyte at the known concentrates (standards) and at zero concentration of the analyte, respectively.
The extent of cross-reactivity was evaluated by determining IC50 values using an ic-ELISA as described above. […] The concentration of the standard solutions of the compounds was set from 0.01 to 1000 ng/mL.

Test [2] deals with monoclonal antibodies. Also noted: method as in not given. The note with it: published mAb-based homologous ic-ELISAs and fluoroimmunoassay; range over the literature; ref not given; cited from earlier work.
Test [3] has as its system mAb 5C10/3A8. As to the kind of experiment: QD-based fluorescence-linked immunosorbent assay (FLISA). The test is classed as binding. The settings on record: 655 nm QDs-conjugated goat anti-mouse IgG. How it is done:
The procedures for FLISA and ic-ELISA were identical before the secondary antibody was added. More specifically, after washing with PBST for three times, 100 μL of 655 nm QDs-conjugated goat anti-mouse IgG (1:10,000 dilution) was added to each well and incubated at 37 °C for 45 min. After three washes with PBST, a SpectraMax M2e Microplate Reader (Molecular Devices, San Jose, CA, USA) was used to measure the fluorescence signals from samples with excitation/emission at 360/655 nm. The fluorescence intensities were identified as B0 and B for the control and testing sample. The standard curve was established by plotting the form (B/B0) 100% against the 2-NP-AMOZ concentration.

Consider `NN1CC(=O)NC1=O` [AHD, 1-aminohydantoin], for which, in test [1], the Cross-Reactivity is on record as below 0.01% and the IC50 was above 1 µg/mL.
On to `O=C1CN(/N=C/c2ccc([N+](=O)[O-])o2)C(=O)N1` [Nitrofurantoin, nitrofurantoin], for which, in test [1], the Cross-Reactivity was below 0.01% and the IC50 was above 1 µg/mL.
`O=Cc1ccccc1[N+](=O)[O-]` [2-NBA, 2-nitrobenzaldehyde]: in test [1], the Cross-Reactivity is on record as below 0.01% and the IC50 was above 1 µg/mL.
For the compound `NNC(N)=O` [SEM, semicarbazide], in test [1], the Cross-Reactivity is reported as below 0.01% and the IC50 is above 1 µg/mL.
Consider `O=C1CN(/N=C/c2ccccc2[N+](=O)[O-])C(=O)N1` [2-NP-AHD], for which, in test [1], the Cross-Reactivity is listed as below 0.01% and the IC50 is above 1 µg/mL.
In the case of `NC(=O)N/N=C/c1ccc([N+](=O)[O-])o1` [Nitrofurazone, nitrofurazone], in test [1], the Cross-Reactivity is below 0.01% and the 50% inhibitory concentration (IC50) is above 1 µg/mL.
Regarding `O=C1OC(CN2CCOCC2)CN1/N=C/c1ccccc1[N+](=O)[O-]` (centres unmarked) [2-NP-AMOZ], the IC50 in test [2] is 0.00014 to 0.0043 µg/mL; in test [3] it was 0.09 ng/mL (≈ 0.000269 µM); in test [1], 0.00011 µg/mL (≈ 0.000329 µM). In addition, the Cross-Reactivity in test [1] is reported as 100%.
As for `O=C1OCCN1/N=C/c1ccccc1[N+](=O)[O-]` [2-NP-AOZ], in test [1], the Cross-Reactivity was below 0.01% and the IC50 is above 1 µg/mL.
Turning to `NN1CC(CN2CCOCC2)OC1=O` (centres unmarked) [AMOZ, 3-amino-5-morpholinomethyl-2-oxazolidinone], the values for the IC50 in test [2] and in test [1] were 0.00115 to 0.00533 µg/mL and 0.00103 µg/mL (≈ 0.00512 µM), respectively. Besides, in test [1], the Cross-Reactivity worked out at 10.7%.
As for `O=Cc1ccc(C(=O)O)cc1` [4-CBA, 4-carboxybenzaldehyle], in test [1], the Cross-Reactivity is given as below 0.01% and the 50% inhibitory concentration (IC50) is above 1 µg/mL.
With `O=C(O)c1ccc(/C=N/N2CC(CN3CCOCC3)OC2=O)cc1` (centres unmarked) [CPAMOZ, carboxyphenyl AMOZ], in test [1], the Cross-Reactivity stood at 122.2% and the IC50 is 9e-05 µg/mL (≈ 0.00027 µM).
Regarding `O=C1OC(CN2CCOCC2)CN1/N=C/c1ccc([N+](=O)[O-])o1` (centres unmarked) [Furaltadone, furaltadone], in test [1], the Cross-Reactivity stood at 8.9% and the IC50 is 0.00124 µg/mL (≈ 0.00382 µM).
With `NN1CCOC1=O` [AOZ, 3-amino-2-oxazolidinone], in test [1], the Cross-Reactivity is below 0.01% and the half-inhibitory concentration (IC50) was above 1 µg/mL.
